The text below walks through data of patent US20230047816A1 (priority 2018, published 2023).

As a reminder, the pIC50 is the negative decadic logarithm of the IC50, by convention in mol/L.

pIC50: −log10 of the molar value.

In the assay the target is Recombinant full length human PFKFB3 (Homo sapiens, UniProt Q16875). Nature of the assay: PFKFB3 kinase activity assay (ADP production, ADP-Glo). (In ADP-Glo the light output rises with the ADP produced.)
Sequence of Recombinant full length human PFKFB3 (Q16875 whole entry): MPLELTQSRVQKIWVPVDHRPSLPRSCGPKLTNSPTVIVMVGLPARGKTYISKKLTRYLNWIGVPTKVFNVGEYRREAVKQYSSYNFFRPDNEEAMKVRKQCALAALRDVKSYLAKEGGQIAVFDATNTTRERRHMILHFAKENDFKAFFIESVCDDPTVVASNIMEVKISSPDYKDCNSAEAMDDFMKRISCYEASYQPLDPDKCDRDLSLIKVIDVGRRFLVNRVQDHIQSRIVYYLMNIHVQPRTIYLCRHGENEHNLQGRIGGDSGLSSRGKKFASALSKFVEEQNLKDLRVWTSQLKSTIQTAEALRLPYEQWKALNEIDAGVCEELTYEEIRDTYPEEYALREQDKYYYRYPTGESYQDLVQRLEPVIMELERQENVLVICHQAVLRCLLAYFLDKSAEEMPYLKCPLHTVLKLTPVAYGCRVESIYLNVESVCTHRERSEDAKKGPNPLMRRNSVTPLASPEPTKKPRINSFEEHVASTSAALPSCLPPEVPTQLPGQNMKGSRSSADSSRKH
For the molecule `COC(=O)c1ccc(-c2ccc(F)c(F)c2)cc1N1Cc2ccc(-c3nnn[nH]3)cc2C1=O` [Compound 99, 3′,4′-Difluoro-3-[1-oxo-6-(1H-tetrazol-5-yl)-1,3-dihydroisoindol-2-yl]biphenyl-4-carboxylic acid methyl ester], the pIC50 is 4.70 to 5.30.
The value for `COc1ccc(-c2c(C)sc(N3C(=O)c4ccc(C(=O)N[C@@H](CO)C(=O)O)cc4C3=O)c2C#N)cc1` [Example 16] was 5.30 to 5.70.
Consider `COc1ccc(-c2c(C)sc(N3C(=O)c4ccc(C(=O)NCC(=O)O)cc4C3=O)c2C#N)cc1` [compound 149, 2-(2-(3-cyano-4-(4-methoxyphenyl)-5-methylthiophen-2-yl)-1,3-dioxoisoindoline-5-carboxamido)acetic acid], for which the negative-log IC50 (pIC50) was greater than 4.70.
Under `COC(=O)c1ccc(-c2ccc(F)c(F)c2)cc1N1Cc2ccc(-n3cnnn3)cc2C1=O` [Compound 121, 3′,4′-Difluoro-3-(1-oxo-6-tetrazol-1-yl-1,3-dihydroisoindol-2-yl)biphenyl-4-carboxylic acid methyl ester] stands greater than 4.70.
In the case of `CC(CN(C)C)OC(=O)c1ccc(-c2ccc(Cl)cc2Cl)cc1NC(=O)c1cc(C(=O)O)c(O)cc1C(=O)O` (stereo not drawn) [Example 73, 2-{[2′,4′-dichloro-4-({[1-(dimethylamino)propan-2-yl]oxy}carbonyl)-[1,1′-biphenyl]-3-yl]carbamoyl}-5-hydroxybenzene-1,4-dicarboxylic acid], the pIC50 was greater than 6.30.
The value for `O=C1c2ccc(-c3c[nH]nn3)cc2C(=O)N1c1ccc(-c2ccccc2)nc1O` [Compound 89, 2-(2-Hydroxy-6-phenylpyridin-3-yl)-5-(1H-[1,2,3]triazol-4-yl)-isoindole-1,3-dione] was greater than 4.70; that for `O=C(O)c1cc(C(=O)O)c(C(=O)Nc2cc(-c3ccc(F)c(F)c3)ccc2C(=O)O)cc1Cl` [Example 45, 4-({4-carboxy-3′,4′-difluoro-[1,1′-biphenyl]-3-yl}carbamoyl)-6-chlorobenzene-1,3-dicarboxylic acid] was greater than 6.30; that for `CN(C)CCCOC(=O)c1ccc(-c2ccc(Cl)cc2Cl)cc1NC(=O)c1cc(O)c(C(=O)O)cc1C(=O)O` [Example 51, 4-[(2′,4′-dichloro-4-{[3-(dimethylamino)propoxy]carbonyl}-[1,1′-biphenyl]-3-yl)carbamoyl]-6-hydroxybenzene-1,3-dicarboxylic acid] was greater than 6.30.
Under `O=C(O)c1cc(C(=O)Nc2cc(-c3ccc(F)c(F)c3)ccc2C(=O)O)c(C(=O)O)cc1O` [Example 28, 2-({4-carboxy-3′,4′-difluoro-[1,1′-biphenyl]-3-yl}carbamoyl)-5-hydroxybenzene-1,4-dicarboxylic acid] stands greater than 6.30.
Under `COC(=O)c1ccc(-c2ccccc2)cc1N1C(=O)c2ccc(-c3nnn[nH]3)cc2C1=O` [Example 44] stands 5.30 to 5.70; under `O=C(O)c1ccc(-c2ccc(F)c(F)c2)cc1N1Cc2ccc(-n3cnnn3)cc2C1=O` [Compound 122, 3′,4′-Difluoro-3-(1-oxo-6-tetrazol-1-yl-1,3-dihydroisoindol-2-yl)biphenyl-4-carboxylic Acid], 5.70 to 6.30; under `O=C(O)c1ccc(-c2ccc(F)c(F)c2)cc1N1Cc2ccc(-c3nn[nH]c3C(=O)c3ccccc3)cc2C1=O` [compound 162, 3-(6-(5-benzoyl-1H-1,2,3-triazol-4-yl)-1-oxoisoindolin-2-yl)-3′,4′-difluorobiphenyl-4-carboxylic acid], 5.70 to 6.30.
As to `O=C(O)c1ccc(-c2ccccc2)cc1N1C(=O)c2ccc(-c3c[nH]nn3)cc2C1=O` [Example 59], the pIC50 is greater than 6.30.
Regarding `COC(=O)c1ccc(-c2ccccc2)cc1N1Cc2ccc(C(=O)O)cc2C1=O` [Compound 102, 2-(4-Methoxycarbonylbiphenyl-3-yl)-3-oxo-2,3-dihydro-1H-isoindole-5-carboxylic Acid], the pIC50 was greater than 4.70.
Under `O=C(O)c1cc(-c2ccccc2)ccc1N1C(=O)c2ccc(-c3c[nH]nn3)cc2C1=O` [Example 31, 4-[1,3-Dioxo-5-(1H-[1,2,3]triazol-4-yl)-1,3-dihydroisoindol-2-yl]biphenyl-3-carboxylic Acid] stands greater than 6.30; under `CS(=O)(=O)NC(=O)c1ccc2c(c1)C(=O)N(c1cc(-c3ccc(F)c(F)c3)ccc1C(N)=O)C2` [Compound 107, 3′,4′-Difluoro-3-(6-methanesulfonylaminocarbonyl-1-oxo-1,3-dihydroisoindol-2-yl)biphenyl-4-carboxylic acid amide], greater than 4.70.
The value for `CC1(C)CCC(c2ccc(C(=O)O)c(NC(=O)c3cc(C(=O)O)c(O)cc3C(=O)O)c2)CC1` [Example 57, 2-{[2-carboxy-5-(4,4-dimethylcyclohexyl)phenyl]carbamoyl}-5-hydroxybenzene-1,4-dicarboxylic acid] was greater than 6.30.
Under `CCOC(=O)c1ccc(-c2ccc(F)c(F)c2)cc1N1C(=O)c2ccc(-c3cnn[nH]3)cc2C1=O` [compound 167, ethyl 3-[1,3-dioxo-5-(1H-1,2,3-triazol-5-yl)-1,3-dihydro-2H-isoindol-2-yl]-3′,4′-difluoro[1,1′-biphenyl]-4-carboxylate] stands greater than 4.70; under `CS(=O)(=O)NC(=O)c1ccc2c(c1)C(=O)N(c1cc(-c3ccc(F)c(F)c3)ccc1C(=O)OCCN1CCCC1)C2` [Compound 109, 3′,4′-Difluoro-3-(6-methanesulfonylaminocarbonyl-1-oxo-1,3-dihydroisoindol-2-yl)biphenyl-4-carboxylic acid 2-pyrrolidin-1-yl-ethyl ester], greater than 4.70; under `O=C1c2ccc(-c3c[nH]nn3)cc2C(=O)N1c1cc(-c2ccccc2)ccn1` [Compound 84, 2-(4-Phenylpyridin-2-yl)-5-(1H-[1,2,3]triazol-4-yl)-isoindole-1,3-dione], 4.70 to 5.30.
Regarding `CS(=O)(=O)NC(=O)c1ccc2c(c1)C(=O)N(c1cc(-c3ccccc3)ccc1C(=O)O)C2` [Compound 104, 3-(6-Methanesulfonylaminocarbonyl-1-oxo-1,3-dihydroisoindol-2-yl)biphenyl-4-carboxylic Acid], the pIC50 was greater than 6.30.
The value for `O=C(Nc1cc(Cl)c(-c2c[nH]nn2)cc1C(=O)O)c1cccc(-c2ccccc2)c1` [Example 18, 2-([1,1′-biphenyl]-3-carboxamido)-4-chloro-5-(1H-1,2,3-triazol-5-yl)benzoic acid] was 4.70 to 5.30; that for `CN(C)CCOC(=O)c1ccc(-c2ccc(Cl)cc2Cl)cc1NC(=O)c1ccc(C(=O)N=S(C)(C)=O)cc1C(=O)O` [Example 49, 2-[(2′,4′-dichloro-4-{[2-(dimethylamino)ethoxy]carbonyl}-[1,1′-biphenyl]-3-yl)carbamoyl]-5-{[dimethyl(oxo)-λ^6-sulfanylidene]carbamoyl}benzoic acid] was greater than 6.30; that for `CC(C)OC(=O)c1ccc(-c2ccc(F)c(F)c2)cc1N1Cc2ccc(CO)cc2C1=O` [compound 156, isopropyl 3′,4′-difluoro-3-(6-(hydroxymethyl)-1-oxoisoindolin-2-yl)biphenyl-4-carboxylate] was greater than 4.70.
The value for `CC1(C)CCN(c2ccc(C(=O)O)c(NC(=O)c3cc(C(=O)O)c(O)cc3C(=O)O)c2)CC1` [Example 56, 2-{[2-carboxy-5-(4,4-dimethylpiperidin-1-yl)phenyl]carbamoyl}-5-hydroxybenzene-1,4-dicarboxylic acid] was greater than 6.30.
On to `O=C(OCCN1CCOCC1)c1ccc(-c2ccccc2)cc1N1C(=O)c2ccc(-c3c[nH]nn3)cc2C1=O` [Example 67], for which the negative logarithm of the IC50 (pIC50) is 4.70 to 5.30.
Under `O=C(O)c1ccc(-c2cnn[nH]2)cc1CNc1cc(-c2ccc(F)c(F)c2)ccc1C(=O)O` [Example 7, 3-({[2-carboxy-5-(2H-1,2,3-triazol-4-yl)phenyl]methyl}amino)-3′,4′-difluoro-[1,1′-biphenyl]-4-carboxylic acid] stands 4.70 to 5.30; under `COC(=O)c1cc(-c2ccccc2)ccc1N1C(=O)c2ccc(-c3c[nH]nn3)cc2C1=O` [Example 33], greater than 4.70; under `O=C(O)c1ccc(-c2ccc(F)cc2)cc1N1C(=O)c2ccc(-c3c[nH]nn3)cc2C1=O` [Example 57], 5.30 to 5.70.
The value for `CS(=O)(=O)NC(=O)c1ccc2c(c1)C(=O)N(c1cc(-c3ccccc3)ccc1C(=O)O)C2=O` [Example 25, 3-(5-Methanesulfonylaminocarbonyl-1,3-dioxo-1,3-dihydroisoindol-2-yl)biphenyl-4-carboxylic Acid] was greater than 6.30.
Regarding `CC(C)OC(=O)c1ccc(-c2ccc(F)c(F)c2)cc1N1Cc2ccc(C(=O)NS(C)(=O)=O)cc2C1=O` [Compound 125, 3′,4′-Difluoro-3-(6-methanesulfonylaminocarbonyl-1-oxo-1,3-dihydro-isoindol-2-yl)-biphenyl-4-carboxylic acid isopropyl ester], the pIC50 was greater than 4.70.
Under `CN(C)S(=O)(=O)c1cc(-c2cnn[nH]2)c(Cl)cc1C(=O)Nc1cc(-c2ccc(F)c(F)c2)ccc1C(=O)O` [Example 26, 3-(5-chloro-2-(N,N-dimethylsulfamoyl)-4-(1H-1,2,3-triazol-5-yl)benzamido)-3′,4′-difluoro-[1,1′-biphenyl]-4-carboxylic acid] stands 5.30 to 5.70.
The value for `O=C(O)c1cc(-c2cnn[nH]2)c(Cl)cc1NC(=O)c1cc(-c2ccc(F)c(F)c2)ccc1C(=O)O` [Example 19, 3-((2-carboxy-5-chloro-4-(1H-1,2,3-triazol-5-yl)phenyl)carbamoyl)-3′,4′-difluoro-[1,1′-biphenyl]-4-carboxylic acid] was greater than 6.30.
Turning to `COC(=O)c1ccc(-c2ccccc2)cc1N1Cc2ccc(C(=O)NS(C)(=O)=O)cc2C1=O` [Compound 103, 3-(6-Methanesulfonylaminocarbonyl-1-oxo-1,3-dihydroisoindol-2-yl)biphenyl-4-carboxylic acid methyl ester], the pIC50 is greater than 4.70.
The value for `CCOC(=O)c1ccc(-c2ccc(F)c(F)c2)cc1N1Cc2ccc(CO)cc2C1=O` [compound 159, ethyl 3′,4′-difluoro-3-(6-(hydroxymethyl)-1-oxoisoindolin-2-yl)biphenyl-4-carboxylate] was greater than 4.70; that for `CCCCOC(=O)c1ccc2c(c1)C(=O)N(c1cc(OC)c(-c3ccccc3)cc1C(=O)OC)C2=O` [Example 39] was greater than 4.70.
